We go through 1 compound from PMC6479099, “Aminoguanidines: New leads for treatment of Giardia duodenalis infection” (International Journal for Parasitology: Drugs and Drug …, 2019).

Values after ≈ are worked out from the molar mass of the structure shown. Like-named read-outs stand apart in the source and are kept apart here.

The subject of data set [1] is Giardia duodenalis BAH2c2 strain, assemblage A. Briefly: Resazurin reduction assay, assemblage A isolate. Format: cell-based. To be noted: BAH2c2, 24 h; for IC50: resazurin metabolic assay, read-out: IC50, Assemblage A. The protocol: (§1) G. duodenalis (BAH2c2 and BAH12 strain) was cultivated according to the method of Clark and Diamond in Keister's modified TYI-S-33 medium, supplemented with heat inactivated foetal bovine serum (Hyclone™, Thermo Fisher Scientific, Scoresby, Victoria, Australia) at 37 °C in plastic 9 mL screw-capped test tubes (nunc, Thermo Fisher Scientific, Scoresby, Victoria, Australia). Subcultures were performed once a confluent monolayer was observed, approximately 2–3 times per week ([Clark and Diamond, 2002]).
(§2) The in-vitro compound efficacy was determined using a resazurin reduction assay as previously described ([Benere et al., 2007]). The media of confluent cultures was replaced with fresh media and the cultures were placed on ice for 40 min to detach trophozoites. Trophozoites were enumerated using a haemocytometer and 50 000 trophozoites were added to each test well of a 96 well plate. Doubling or tripling dilutions of the test compounds were added to wells beginning at 25 or 50 μM compound concentration (previously prepared in DMSO). Metronidazole and DMSO (vehicle only) were used as controls. Plates were incubated under anaerobic conditions, using anaerobic gas generating sachets, (AnaeroGen, Thermo Fisher Scientific, Scoresby, Victoria, Australia) for 24 h at 37 °C. After incubation the media was removed and replaced with an equal volume of warm PBS. Resazurin (Alamarblue, Thermo Fisher Scientific, Scoresby, Victoria, Australia) was then added at 10% of the total volume of the wells. Plates were further incubated (1.5 h) for colour development and absorbance read at 570 nm and 630 nm. The percentage resazurin reduction was then calculated using the following formula:((εoxi630 x A570) – (εoxi570 x A630))/((εred570 x C630)-([…])) x 100Where: εoxi630 = 34798, εoxi570 = 80586, A570 = absorbance at 570 nm, A630 = absorbance at 630 nm, εred570 = 155677, εred630 = 5494, C630 = absorbance of negative control well at 630 nm and C570 = absorbance of negative control well at 570 nm.
(§3) For the resazurin reduction assay the mean and standard error of the mean were determined with each assay completed in triplicate. The IC50 was calculated using the log (inhibitor) vs. normalised response – variable slope function in Graphpad Prism. For the adherence assay mean and standard error of the mean were calculated and data analysed using an unpaired t-test, relative to untreated control.
(§4) The IC50 of each compound was determined using a resazurin reduction assay, which measures the metabolic activity of cells, using the log (inhibitor) vs. normalised response – variable slope function in Graphpad Prism. The compounds were tested against an assemblage A (BAH2c2, 24 h) and an assemblage B (BAH12, 24 h) isolate (Table 1). […] The effect of the compounds on the proliferation of Giardia trophozoites (BAH2c2) was also determined.
Absorbance was measured (630 and 570 nm), percent reduction of resazurin calculated and data presented as a percentage of the growth control. Treatment groups are: square - metronidazole; triangle –NCL 099; diamond - robenidine; and circle - NCL 062. Error ± SEM, n = 3. Data represents a typical experiment. Note the break in the x-axis indicates a change in the scale of drug concentration.

The subject of data set [2] is Giardia duodenalis BAH12, assemblage B. Description: Resazurin reduction assay, assemblage B isolate. Format: cell-based. To be noted: BAH12, 24 h. The protocol:
as §1, §2, §3, §4
A general note: Resazurin is reduced to fluorescent resorufin, in cell work by metabolically active cells.

Data set [3] deals with Giardia trophozoites (BAH2c2). Briefly: Proliferation of Giardia trophozoites (resazurin, 96 h). Format: cell-based, Giardia duodenalis. As to conditions: BAH2c2, 1000 trophozoites per well, read-out: IC50prol, Assemblage A (50% inhibition in the proliferation assay). The protocol:
The effect of the compounds on the proliferation of Giardia trophozoites was determined following the protocol outlined above, with the following modifications. The number of trophozoites was decreased to 1000 per well and the cells were incubated in the presence of each compound for 96 h at 37 °C.
as §4

The nature of data set [4]: In vitro cytotoxicity (WST-1), human lung fibroblast. Format: cell-based. To be noted: HEL 299 human lung fibroblast cells, 24 h exposure. The protocol: (§5) Cells were passaged every 3 days. Assays were performed in 96 well plates in duplicate. Wells were seeded with 50 000 cells.
A short description of data set [5]: In vitro cytotoxicity (WST-1), human hepatocellular carcinoma. It counts as cell-based. To be noted: Hep G2 human hepatocellular carcinoma cells, 24 h exposure. The protocol:
as §5
On the technique in general: Tetrazolium assays rely on reduction of a dye to a coloured formazan, in cell work by metabolically active cells.

In data set [6] the test system is Giardia duodenalis trophozoites. Description: Modified adherence assay. As to conditions: 4 μM, 5 h exposure. Format: cell-based. The protocol: A second screening method, based on counting adherent trophozoites, was developed and used to validate the primary screen method, modified from earlier adherence assay protocols ([Crouch et al., 1986]). The assay was prepared in 24 well plates with plastic coverslips placed in the bottom. Trophozoites were prepared as above by placing on ice and ∼5 × 10^5 cells/mL were added to each well. Drugs prepared in DMSO were added at the required concentration, with the DMSO concentration never exceeding 1%. Assay plates were incubated for 5 h at 37 °C under anaerobic conditions, the media removed and cells adhering to the coverslips were fixed with glutaraldehyde or methanol. Once the coverslips were dry, cells were stained with a Romanowsky stain variant (Rapid stain), fixed to a glass slide and imaged at 10x or 100x magnification. Images (10x magnification) were processed with DotCount v1.2 software (http://reuter.mit.edu/, 2008–2012 ^© Martin Reuter) to count the number of cells present and data analysed using GraphPad Prism version 6.00 for Windows, GraphPad Software, La Jolla California USA, www.graphpad.com. Images (100x magnification) were assessed for obvious morphological changes.
The results for the in vitro drug efficacy studies were analysed using GraphPad Prism version 6.00 for Windows, GraphPad Software, La Jolla California USA, www.graphpad.com. For the resazurin reduction assay the mean and standard error of the mean were determined with each assay completed in triplicate. The IC50 was calculated using the log (inhibitor) vs. normalised response – variable slope function in Graphpad Prism. For the adherence assay mean and standard error of the mean were calculated and data analysed using an unpaired t-test, relative to untreated control.
Fig. 3 Inhibition of adherence of Giardia duodenalis by metronidazole (Mz), robenidine, NCL 062 and NCL 099. Cells were exposed to the compounds for 5 h before staining. Stained cells were imaged at 10x magnification and counted using DotCount™ software. Each assay was completed in triplicate and 5 images taken per sample. Top. Number of adherent trophozoites after exposure to 4 μM of each compound for 5 h; Bottom. An example of the Dotcount software identifying trophozoites at higher magnification. Left: stained trophozoites, Right: highlighted trophozoites identified by the Dotcount software. Each highlighted cell is counted individually. Error ± SEM. * p-value <0.05, ** p-value <0.0001.

In another data set the test system is bacteria. Briefly: Off-target antibacterial effects. It counts as cell-based.

As usually defined, the GI50 is the concentration that inhibits growth by half. Read a high GI50 as less potent growth inhibition. Consider `N=C(N/N=C/c1ccc(Cl)cc1)N/N=C/c1ccc(Cl)cc1` [Robenidine, robenidine], for which the IC50 in data set [1] is 2.9 ± 2.9 µM; in data set [1] (Giardia duodenalis, 24 h), 2 µM; in data set [2] (Giardia duodenalis, resazurin metabolic assay), 4.7 ± 0.6 µM; in data set [3], 1.2 ± 0.7 µM. Besides, the “MLC (minimum lethal concentration), Assemblage A” value in data set [1] (concentration at which no metabolism of resazurin was observed) lay within 2.8 to 8.3 µM. Besides, the “MLC, Assemblage B” value in data set [2] was 16.6 µM (≈ 5.55 µg/mL). The results for the GI50 at 24 h in data set [4] and in data set [5] were 17.7 µM and 25.5 µM, respectively. Also, the “Effect on adherence of trophozoites” value in data set [6] was “complete inhibition of adherence”. Besides, the Off-target antibacterial effects result with bacteria is reported as “off-target antibacterial effects”.
